Test results reported in patent US5047397A, “Linear analogs of atrial natriuretic peptides” (California Biotechnology Inc., priority 1988, dated 1991).
“Also recorded” adds a separate entry of the source. Where no end group is shown, it is not given here.

Assays:
[1] = target: T1, specific ANP receptor sites on BASM or BAE cells (Bos taurus, UniProt P10730); assay: Competitive displacement receptor binding of (125I)-rANP(126-150) on cultured cells; set-up: species or system bovine
T1 construct: specific receptor sites on BASM or BAE cells; endogenous in cells; host or cells: cultured BASM and BAE cells
T1 sequence (P10730 42-537): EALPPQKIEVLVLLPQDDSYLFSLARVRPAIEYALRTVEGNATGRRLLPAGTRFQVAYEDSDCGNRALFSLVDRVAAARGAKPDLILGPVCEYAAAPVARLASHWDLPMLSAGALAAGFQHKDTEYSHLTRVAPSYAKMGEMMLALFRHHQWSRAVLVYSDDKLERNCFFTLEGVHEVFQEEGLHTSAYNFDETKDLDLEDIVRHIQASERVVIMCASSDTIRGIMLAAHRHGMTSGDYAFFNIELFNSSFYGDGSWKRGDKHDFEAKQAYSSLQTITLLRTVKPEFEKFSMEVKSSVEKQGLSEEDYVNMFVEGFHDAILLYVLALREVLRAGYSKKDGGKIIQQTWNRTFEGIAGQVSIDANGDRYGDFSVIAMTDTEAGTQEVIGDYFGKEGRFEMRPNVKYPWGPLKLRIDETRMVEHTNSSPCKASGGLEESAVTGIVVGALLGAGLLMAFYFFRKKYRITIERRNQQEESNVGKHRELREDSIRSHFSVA
Excerpt: Analogous "competitive displacement" receptor binding assays are considered commonplace in the art for examining specific ligand-receptor interactions.
Assuming these ANP analogs act at one or more ANP receptor sites, then increased receptor affinity should reflect increased biological potency.

[2] = system: anesthetized rats; assay: Diuresis in anesthetized rats; type: in vivo, rat; conditions: infused at 5 mcg/min via femoral vein; versus baseline; FIG. 3
Method: In one set of examples, cannulae were placed in the left and right ureters and femoral vein of anesthetized rats and urine was collected from the ureters. Analog peptides were administered via the femoral vein. Prior to infusing the analog peptides, saline was infused for 30 minutes, urine was collected for 6 five-minute baseline periods and urine volume was determined gravimetrically. Following these baseline collection periods, various analog peptides were infused for 30 or 60 minutes and urine volume was measured in five-minute periods during infusion and for 60 minutes following infusion (at which time rats were returned to saline). Data was examined by averaging urine flow rates for six five-minute baseline control periods immediately preceding infusion, and comparing values during and after administration of peptides with the "baseline" control values. Responses to peptides are thus evaluated and plotted as the percent of baseline control responses. Specific examples are shown in FIGS. 3A-H. The error bars at the beginning of the graphs represent baseline values +standard deviations. Responses to peptides that are substantially above baseline ±SD can thus be interpreted as being statistically significant increases.

[3] = system: pentobarbital-anesthetized dogs; assay: Diuresis and natriuresis in anesthetized dogs; type: in vivo, dog
Method: In these examples, cannulae were placed in the left and right ureters and femoral vein of anesthetized dogs and urine was collected from the ureters. Analog peptides were administered via the femoral vein. Prior to infusing analog peptides, saline was infused for 30 minutes and urine was then collected for three ten-minute collection periods. Urine volume was determined gravimetrically and urine sodium was determined photometrically.
Following these three baseline collection periods, the selected analog peptides were infused for 60 minutes and urinary flow was measured for an additional 60 minutes following infusion. During infusion (60 minutes) and recovery (60 minutes), ten-minute collection periods were obtained. Control animals which received only saline were studied in parallel.
Data were examined by comparing urine flow rates for dogs infused with peptides AP101 (3 mcg/kg/min), AP306 (3 mcg/kg/min), AP324 (3 mcg/kg/min),or AP314 (1 mcg/kg/min) against control animals infused with saline.

[4] = system: isolated perfused rat kidney; assay: Natriuresis and diuresis in the isolated perfused rat kidney; conditions: N=4
Excerpt: The results are in Table 2C.

[5] = system: cortical-associated receptor sites of the kidney; assay: Competition for specific (125I)-rANP(123-150) binding in the kidney; set-up: species or system rat; conditions: competitor 10^-7 M, tracer 4 × 10^-12 M, n=3
[6] = rANP(123-150) 10^-8 M in presence of AP57 10^-7 M
[7] = rANP(123-150) 10^-8 M, mean ± SE
[8] = rANP(123-150) 10^-9 M in presence of AP57 10^-7 M
[9] = rANP(123-150) 10^-9 M, mean ± SE
[10] = rANP(123-150) 10^-10 M in presence of AP57 10^-7 M
[11] = rANP(123-150) 10^-10 M, mean ± SE
[12] = rANP(123-150) 10^-11 M in presence of AP57 10^-7 M
[13] = rANP(123-150) 10^-11 M, mean ± SE

Question: With “AFGGRIDRIGA-NH2 [AP101, A--F--G--G--R--I--D--R--I--G--A--NH2]” as the substance, how does the “Ki(app)” value ([1]; concentration of unlabeled peptide displacing 50% of maximal binding of 0.5 nM (125I)-rANP(126-150), BASM or BAE cells) read?
Answer: 2.63 nM

Question: What about the “prevention of (125I)-rANP(126-150) binding to BASM cell-associated receptors (FIG. 2)” value ([1]; increasing concentrations of unlabeled peptide, BASM cells) of the same substance?
Answer: effectively prevent

Question: What about the “urine flow rate (urine volume), diuretic response” value [2] of the same substance?
Answer: induce diuresis; also recorded: significantly increased

Question: And the “Peak Urine Flow Rate V” value ([3]; 3 mcg/kg/min infused 60 min, *P<0.05, control 0.61)?
Answer: 1.77 mL/min

Question: And the “urine flow rate and urinary sodium excretion (diuresis, natriuresis), in words” value ([3]; 3 mcg/kg/minute infusion)?
Answer: cause diuresis; also recorded: significantly increased

Question: Which “FENa (fractional sodium excretion)” value [4, 6] does the source give for “rANP(123-150): sequence of ANP(126-150) which includes 3 additional upstream amino acids of the naturally occurring peptide (SLRRSSCFGGRIDRIGAQSGLGCNSFRY; not fully specified; ends and bridges not checked; UniProt P01161 123-150, looked up, fragment)” here?
Answer: 4.77 ± 1.22%

Question: And the “FF (filtration fraction)” value [4, 6]?
Answer: 2.30 ± 0.47%

Question: And the “GFR (glomerular filtration rate)” value [4, 6]?
Answer: 0.84 ± 0.13 mL/min

Question: What about the “RVR (renal vascular resistance)” value [4, 6] of the same substance?
Answer: 2.63 ± 0.33 mmHg/ml/min

Question: What about the “UNa V (urinary sodium excretion rate)” value [4, 6] of the same substance?
Answer: 6.47 ± 2.29 uEq/min

Question: What about the “V (urine flow rate)” value [4, 6] of the same substance?
Answer: 132 ± 33 µL/min

Question: And the “FENa (fractional sodium excretion)” value [4, 7]?
Answer: 4.12 ± 0.94%

Question: And the “FF (filtration fraction)” value [4, 7]?
Answer: 2.23 ± 0.44%

Question: And the “GFR (glomerular filtration rate)” value [4, 7]?
Answer: 0.80 ± 0.08 mL/min

Question: And the “RVR (renal vascular resistance)” value [4, 7]?
Answer: 2.66 ± 0.32 mmHg/ml/min

Question: What about the “UNa V (urinary sodium excretion rate)” value [4, 7] of the same substance?
Answer: 4.78 ± 1.15 uEq/min

Question: And the “V (urine flow rate)” value [4, 7]?
Answer: 96.6 ± 24.0 µL/min

Question: What about the “FENa (fractional sodium excretion)” value [4, 8] of the same substance?
Answer: 4.08 ± 0.72%

Question: And the “FF (filtration fraction)” value [4, 8]?
Answer: 2.81 ± 0.40%

Question: And the “GFR (glomerular filtration rate)” value [4, 8]?
Answer: 0.99 ± 0.07 mL/min

Question: And the “RVR (renal vascular resistance)” value [4, 8]?
Answer: 2.79 ± 0.34 mmHg/ml/min

Question: What about the “UNa V (urinary sodium excretion rate)” value [4, 8] of the same substance?
Answer: 6.03 ± 1.37 uEq/min

Question: What about the “V (urine flow rate)” value [4, 8] of the same substance?
Answer: 139 ± 14 µL/min

Question: What about the “FENa (fractional sodium excretion)” value [4, 9] of the same substance?
Answer: 2.78 ± 0.89%

Question: And the “FF (filtration fraction)” value [4, 9]?
Answer: 2.30 ± 0.41%

Question: And the “GFR (glomerular filtration rate)” value [4, 9]?
Answer: 0.82 ± 0.07 mL/min

Question: And the “RVR (renal vascular resistance)” value [4, 9]?
Answer: 2.64 ± 0.35 mmHg/ml/min

Question: And the “UNa V (urinary sodium excretion rate)” value [4, 9]?
Answer: 3.22 ± 0.92 uEq/min

Question: And the “V (urine flow rate)” value [4, 9]?
Answer: 74.0 ± 14.8 µL/min

Question: What about the “FENa (fractional sodium excretion)” value [4, 10] of the same substance?
Answer: 1.33 ± 0.20%

Question: What about the “FF (filtration fraction)” value [4, 10] of the same substance?
Answer: 2.65 ± 0.20%

Question: And the “GFR (glomerular filtration rate)” value [4, 10]?
Answer: 0.93 ± 0.04 mL/min

Question: And the “RVR (renal vascular resistance)” value [4, 10]?
Answer: 2.80 ± 0.31 mmHg/ml/min

Question: What about the “UNa V (urinary sodium excretion rate)” value [4, 10] of the same substance?
Answer: 1.76 ± 0.25 uEq/min

Question: And the “V (urine flow rate)” value [4, 10]?
Answer: 70.6 ± 4.2 µL/min

Question: And the “FENa (fractional sodium excretion)” value [4, 11]?
Answer: 1.21 ± 0.44%

Question: What about the “FF (filtration fraction)” value [4, 11] of the same substance?
Answer: 1.76 ± 0.29%

Question: And the “GFR (glomerular filtration rate)” value [4, 11]?
Answer: 0.66 ± 0.07 mL/min

Question: And the “RVR (renal vascular resistance)” value [4, 11]?
Answer: 2.51 ± 0.26 mmHg/ml/min

Question: And the “UNa V (urinary sodium excretion rate)” value [4, 11]?
Answer: 1.13 ± 0.43 uEq/min

Question: And the “V (urine flow rate)” value [4, 11]?
Answer: 35.5 ± 5.7 µL/min

Question: And the “FENa (fractional sodium excretion)” value [4, 12]?
Answer: 0.41 ± 0.11%

Question: And the “FF (filtration fraction)” value [4, 12]?
Answer: 2.04 ± 0.15%

Question: What about the “GFR (glomerular filtration rate)” value [4, 12] of the same substance?
Answer: 0.80 ± 0.08 mL/min

Question: And the “RVR (renal vascular resistance)” value [4, 12]?
Answer: 2.50 ± 0.15 mmHg/ml/min

Question: What about the “UNa V (urinary sodium excretion rate)” value [4, 12] of the same substance?
Answer: 0.45 ± 0.10 uEq/min

Question: And the “V (urine flow rate)” value [4, 12]?
Answer: 31.0 ± 3.7 µL/min

Question: And the “FENa (fractional sodium excretion)” value [4, 13]?
Answer: 0.72 ± 0.19%

Question: What about the “FF (filtration fraction)” value [4, 13] of the same substance?
Answer: 1.33 ± 0.20%

Question: And the “GFR (glomerular filtration rate)” value [4, 13]?
Answer: 0.53 ± 0.04 mL/min

Question: And the “RVR (renal vascular resistance)” value [4, 13]?
Answer: 2.36 ± 0.20 mmHg/ml/min

Question: And the “UNa V (urinary sodium excretion rate)” value [4, 13]?
Answer: 0.53 ± 0.14 uEq/min

Question: What about the “V (urine flow rate)” value [4, 13] of the same substance?
Answer: 21.8 ± 1.7 µL/min

Question: What about the “RATIO OF BOUND/FREE (125I)-rANP(123-150), Whole Kidney” value ([5]; tracer alone 122 ± 46) of the same substance?
Answer: 0.63 ± 0.27

Question: What about the “RATIO OF BOUND/FREE (125I)-rANP(123-150), Outer Cortex” value ([5]; tracer alone 176 ± 23) of the same substance?
Answer: 0.77 ± 0.30
